From US20240252677A1, “ONE-COMPONENT DELIVERY SYSTEM FOR NUCLEIC ACIDS” (The Trustees of the University of Pennsylvania, priority 2021, published 2024)

Assays:
[1] = pKa measurements of individual IAJD molecules by titration; type: physicochemical; settings: ethanol saturated with NaCl, titrated with 0.1 M aqueous HCl; individual IAJD molecules, titration
In short: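 pKa derived by half-equivalence-point analysis of a pH-meter titration curve: 0.1 M HCl added in 7.5 μL increments to a 1.5 mg/mL solution of each molecule in ethanol saturated with NaCl.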

[2] = Dimensions (size, PDI) of DNPs co-assembled from IAJDs and Luc-mRNA by DLS; type: physicochemical
In short: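 Hydrodynamic size and PDI were read by dynamic light scattering at 23 °C, 175° backscatter, 633 nm. Particles formed by fast injection of ethanolic IAJD stock (80 mg/mL) into nucleoside-modified luciferase mRNA (stock 4.0 mg/mL) in 10 mM acetate pH 4.0, 5 s vortex.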

spleen = test: In vivo mRNA delivery, IVIS imaging of organs: spleen; design: species or system mice; key to Organs with luminescence: spleen: strong: Strong meant the luminescence intensity in that organ was relatively high, compared to other organs; weak: Weak meant the luminescence intensity in that organ was relatively low, compared to other organs; settings: Table 17; mice, IVIS, 4-6 h after injection; intensity relative to other organs
[3] = Stability of DNPs by DLS after storage at 5° C.; type: physicochemical; design: key to Original size distribution type (DLS curve) / Size distribution type (DLS curve): U: DLS curve showed unimodal size distribution; B: DLS curve showed bimodal size distribution; M: DLS curve showed multimodal size distribution; settings: for pH Sample: DNPs: IAJD 4.0 mg/mL + Luc-mRNA 0.1 mg/mL, injection in acetate buffer pH 4.00; for PDI / Size (d, nm) / Original size distribution type (DLS curve): IAJD 4.0 mg/mL + Luc-mRNA 0.1 mg/mL; for PDI / Size (d, nm): acetate buffer; for Original size distribution type (DLS curve): before storage, acetate buffer pH 4.00
In short: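 DNPs in acetate buffer sized by DLS after storage at 5 °C. Stability ranked Excellent, Good or Not stable according to retention, shrinkage or growth of original size and narrowing or broadening of size distribution.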

[4] = Table 16, DNPs from IAJD 4 mg/mL and Luc-mRNA 0.10 mg/mL by injection in acetate buffer (10 mM, pH 4.0)
[5] = Table 17, DNPs used in vivo, IAJD 4 mg/mL, Luc-mRNA 0.10 mg/mL, acetate pH 4.0

Row | Compound | pKa [1] | PDI [2, 4] | Size (d, nm) [2, 4] [nm] | PDI [2, 5] | Size (d, nm) [2, 5] [nm] | Organs with luminescence: spleen (spleen) | pH Sample [3] | Size distribution type (DLS curve) ([3]; after 62 days at 5° C.) | PDI ([3]; after 62 days at 5° C.) | Size (d, nm) ([3]; after 62 days at 5° C.) [nm] | Original size distribution type (DLS curve) [3] | Size distribution type (DLS curve) ([3]; after 42 days at 5° C.) | PDI ([3]; after 42 days at 5° C.) | Size (d, nm) ([3]; after 42 days at 5° C.) [nm] | Size distribution type (DLS curve) ([3]; after 27 days at 5° C.) | PDI ([3]; after 27 days at 5° C.) | Size (d, nm) ([3]; after 27 days at 5° C.) [nm] | Size distribution type (DLS curve) ([3]; after 35 days at 5° C.) | PDI ([3]; after 35 days at 5° C.) | Size (d, nm) ([3]; after 35 days at 5° C.) [nm]
1 | CCCCCCCCCCCOc1cc(COC(=O)CCCN2CCN(CCO)CC2)cc(OCC(CC)CCCC)c1 (stereo not drawn) [IAJD 130, 3-((2-Ethylhexyl)oxy)-5-(undecyloxy)benzyl 4-(4-(2-hydroxyethyl)piperazin-1-yl)butanoate] | 6.62 | 0.271 | 172 | 0.271 | 172 | spleen (strong) | 4.50 | (U) | 0.282 | 149 | (U) |  |  |  |  |  |  |  |  | 
2 | CCCCCCCCCCCCCCOc1cc(CNC(=O)CCCN2CCN(C)CC2)cc(OCCCCCCCCCCC)c1 [IAJD 133, 4-(4-Methylpiperazin-1-yl)-N-(3-(tetradecyloxy)-5-(undecyloxy)benzyl)butanamide] | 6.57 | 0.414 | 228 | 0.414 | 228 | spleen (weak) | 4.63 |  |  |  | (B) | (B) | 0.454 | 216 |  |  |  |  |  | 
3 | CCCCCCCCCCCCCCCOc1cc(COC(=O)CCCN2CCN(C)CC2)cc(OCC(CC)CCCC)c1 (stereo not drawn) [IAJD 135, 3-((2-Ethylhexyl)oxy)-5-(pentadecyloxy)benzyl 4-(4-methylpiperazin-1-yl)butanoate] | 6.32 | 0.267 | 92 | 0.267 | 92 | spleen (weak) | 4.95 |  |  |  | (U) |  |  |  | (U) | 0.278 | 92 |  |  | 
4 | CCCCCCCCCCCCCCCOc1cc(COC(=O)CCCN2CCN(CCO)CC2)cc(OCC(CC)CCCC)c1 (stereo not drawn) [IAJD 136, 3-((2-Ethylhexyl)oxy)-5-(pentadecyloxy)benzyl 4-(4-(2-hydroxyethyl)piperazin-1-yl)butanoate] | 6.5 | 0.307 | 149 | 0.307 | 149 | spleen (strong) | 4.57 |  |  |  | (U) |  |  |  | (U) | 0.296 | 153 |  |  | 
5 | CCCCCCCCCCCCCCCOc1cc(COC(=O)CCCN2CCN(CCO)CC2)cc(OCCCCCCCC)c1 [IAJD 138, 3-(Octyloxy)-5-(pentadecyloxy)benzyl 4-(4-(2-hydroxyethyl)piperazin-1-yl)butanoate] | 6.62 | 0.305 | 99 | 0.305 | 99 | spleen (strong) | 4.52 |  |  |  | (U) |  |  |  |  |  |  | (B) | 0.261 | 112
6 | CCCCCCCCCCCCCCCOc1cc(COC(=O)CCCN2CCN(C)CC2)cc(OCCCCCCCCCC)c1 [IAJD 141, 3-(Decyloxy)-5-(pentadecyloxy)benzyl 4-(4-methylpiperazin-1-yl)butanoate] | 6.56 | 0.313 | 158 | 0.313 | 158 | spleen (strong) | 4.62 |  |  |  | (U) |  |  |  | (U) | 0.286 | 156 |  |  | 
7 | CCCCCCCCCCCCCCCOc1cc(COC(=O)CCCN2CCN(CCO)CC2)cc(OCCCCCCCCCC)c1 [IAJD 142, 3-(Decyloxy)-5-(pentadecyloxy)benzyl 4-(4-(2-hydroxyethyl)piperazin-1-yl)butanoate] | 6.69 | 0.293 | 230 | 0.293 | 230 | spleen (strong) | 4.52 |  |  |  | (B) |  |  |  | (U) | 0.266 | 214 |  |  | 
8 | CCCCCCCCCCCCCCCOc1cc(COC(=O)CCCN2CCN(C)CC2)cc(OCCCCCCCCCCCC)c1 [IAJD 143, 3-(Dodecyloxy)-5-(pentadecyloxy)benzyl 4-(4-methylpiperazin-1-yl)butanoate] | 6.33 | 0.270 | 169 | 0.270 | 169 | spleen (strong) | 4.48 |  |  |  | (U) |  |  |  | (U) | 0.243 | 166 |  |  | 
9 | CCCCCCCCCCCCCCCOc1cc(COC(=O)CCCN2CCN(CCO)CC2)cc(OCCCCCCCCCCCC)c1 [IAJD 144, 3-(Dodecyloxy)-5-(pentadecyloxy)benzyl 4-(4-(2-hydroxyethyl)piperazin-1-yl)butanoate] | 6.51 | 0.432 | 236 | 0.432 | 236 | spleen (strong) | 4.40 |  |  |  | (B) |  |  |  | (U) | 0.276 | 216 |  |  | 
